Consider 38 compounds from US6908919B2, “Substituted polycyclic aryl and heteroaryl pyrazinones useful for selective inhibition of the coagulation cascade” (Pharmacia Corporation, priority 1999, dated 2005).

For assay [1], the target named is T1, recombinant soluble tissue factor and recombinant human factor VIIa (TF-VIIa) (Homo sapiens, UniProt P08709).
T1 construct: conversion of coagulation factor VII to VIIa by Xa; purchased American Diagnostica, Greenwich Conn; host or cells: VIIa purchased; soluble TF made in house in E. coli
As to the kind of experiment: TF-VIIa Assay. As to conditions: for IC50: read-out: IC50 TF-VIIa; for inhibition at 30 µM: 1 h, at 30 µM inhibitor. In kind it is biochemical.

The next assay deals with Human factor Xa (Homo sapiens, UniProt P00742). As to the kind of experiment: Xa Assay. In kind it is biochemical. As to conditions: for % Inhibition Factor Xa (30 µM): at 30 µM inhibitor; for inhibition at 100 µM: at 100 μM inhibitor. Also noted: purchased Enzyme Research Laboratories, South Bend Ind.
Assay [2] has as its target T2, Human thrombin (Homo sapiens, UniProt P00734).
Assay [3] concerns the target T2, Human thrombin. As to the kind of experiment: biochemical. To be noted: for inhibition at 100 µM: read-out: % Inhibition Thrombin II at 100 μM.

SMILES strings stand for the structures. A value given as a limit tells only on which side of the number the result lay.

T1 sequence (P08709 61-212 limits assumed): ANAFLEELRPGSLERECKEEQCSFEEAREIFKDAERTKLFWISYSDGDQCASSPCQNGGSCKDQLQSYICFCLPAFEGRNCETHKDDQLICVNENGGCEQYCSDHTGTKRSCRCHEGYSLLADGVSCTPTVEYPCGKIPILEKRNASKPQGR
T1 sequence (P08709 213-466 limits assumed): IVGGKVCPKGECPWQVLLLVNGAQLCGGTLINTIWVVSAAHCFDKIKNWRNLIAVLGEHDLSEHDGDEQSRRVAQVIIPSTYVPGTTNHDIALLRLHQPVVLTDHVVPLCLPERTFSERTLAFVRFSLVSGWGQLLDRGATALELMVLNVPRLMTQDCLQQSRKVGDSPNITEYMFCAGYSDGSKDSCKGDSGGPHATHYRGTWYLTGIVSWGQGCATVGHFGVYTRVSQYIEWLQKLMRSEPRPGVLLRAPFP
T1 sequence (P13726 33-251 partner limits assumed): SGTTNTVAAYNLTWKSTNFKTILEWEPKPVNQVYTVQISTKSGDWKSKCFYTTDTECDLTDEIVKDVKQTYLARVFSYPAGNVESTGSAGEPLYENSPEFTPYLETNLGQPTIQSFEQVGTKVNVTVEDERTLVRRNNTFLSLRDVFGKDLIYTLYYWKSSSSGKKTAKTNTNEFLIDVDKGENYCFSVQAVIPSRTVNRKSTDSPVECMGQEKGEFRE
Human factor Xa, sequence (P00742 41-179 limits assumed): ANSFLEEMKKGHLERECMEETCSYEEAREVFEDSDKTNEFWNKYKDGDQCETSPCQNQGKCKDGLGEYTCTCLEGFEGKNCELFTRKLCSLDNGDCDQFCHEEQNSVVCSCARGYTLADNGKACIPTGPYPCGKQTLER
Human factor Xa, sequence (P00742 235-488 limits assumed): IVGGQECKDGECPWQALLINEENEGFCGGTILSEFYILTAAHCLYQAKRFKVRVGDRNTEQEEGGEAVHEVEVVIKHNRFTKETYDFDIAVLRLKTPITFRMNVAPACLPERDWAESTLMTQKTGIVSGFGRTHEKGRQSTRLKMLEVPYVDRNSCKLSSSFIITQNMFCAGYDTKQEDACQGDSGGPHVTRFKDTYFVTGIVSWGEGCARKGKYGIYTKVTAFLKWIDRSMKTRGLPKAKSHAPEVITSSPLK

For the compound `N=C(N)c1ccc(CNC(=O)Cn2c(-c3ccccc3N)cnc(NC3CCC3)c2=O)cc1` [Example 116], the IC50 in assay [1] is 1.2 µM. Besides, at Human factor Xa, the “% Inhibition Factor Xa (30 µM)” value stood at 12%. Besides, the “% Inhibition Thrombin II (30 µM)” value on Human thrombin [2] was determined as 27%.
As to `CC(C)Nc1nc(Cl)c(-c2cccc(N)c2)n(CC(=O)NCc2ccc(C(N)=S)cc2)c1=O` [Example 156], in assay [1], the inhibition at 30 µM stood at 27%. In addition, the “% Inhibition Factor Xa (30 µM)” value on Human factor Xa stood at 7%. At Human thrombin [2], the “% Inhibition Thrombin II (30 µM)” value is on record as 5%.
For the compound `CN(C)CC/N=C(\NCCN(C)C)c1ccc(CNC(=O)Cn2c(-c3cccc(N)c3)c(Cl)nc(NC3CCC3)c2=O)cc1` [Example 165], in assay [1], the IC50 is 63 µM. In addition, the “% Inhibition Factor Xa (30 µM)” value on Human factor Xa was determined as 4%. Besides, the “% Inhibition Thrombin II (30 µM)” value on Human thrombin [2] came to 5%.
For `N=C(NC(=O)OCc1ccccc1)c1ccc(CNC(=O)Cn2c(-c3cccc(N)c3)c(Cl)nc(NC3CCC3)c2=O)cc1` [Example 151] the same measures were 0.23 µM, 17% and 29%.
For `CC(C)Nc1ncc(-c2cc(N)cc(N)c2)n(CC(=O)NCc2ccc(C(=N)N)cc2)c1=O` [Example 121], the IC50 in assay [1] was 0.0095 µM. Besides, the inhibition at 83 µM on Human thrombin [3] (read-out: % Inhibition Thrombin II at 83 μM) is 44%; at Human factor Xa (at 83 μM inhibitor), 23%.
As for `CC(C)NC(=N)c1ccc(CNC(=O)Cn2c(-c3cccc(N)c3)c(Cl)nc(NC3CCC3)c2=O)cc1` [Example 161], in assay [1], the IC50 was 88.4 µM. Further, the “% Inhibition Thrombin II (30 µM)” value at Human thrombin [2] is listed as 7%.
With `N=C(N)c1ccc(NC(=O)Cn2c(-c3cccc(N)c3)c(Cl)nc(NC3CCC3)c2=O)cc1` [Example 141], in assay [1], the inhibition at 30 µM stood at 2%. Further, the values for the inhibition at 100 µM on Human thrombin [3] and against Human factor Xa were 11% and 13%, respectively.
As for `N=C(N)c1ccc(CNC(=O)Cn2c(-c3cccc(C(=N)N)c3)c(Cl)nc(NC3CCC3)c2=O)cc1` [Example 114], the IC50 in assay [1] came to 0.38 µM; against Human thrombin [3], 4.3 µM; against Human factor Xa it was 6.5 µM.
`N/N=C(/N)c1ccc(CNC(=O)Cn2c(-c3cccc(N)c3)c(Cl)nc(NC3CCC3)c2=O)cc1` [Example 148]: the concentration for half-maximal inhibition (IC50) in assay [1] was determined as 7.03 µM. The inhibition at 100 µM at Human thrombin [3] stood at 4%; against Human factor Xa, 8%.
In the case of `COC(=O)c1cccc(Sc2ccc(N)cc2-c2c(Cl)nc(NC(C)C)c(=O)n2CC(=O)NCc2ccc(C(=N)N)cc2)c1` [Example 112], the IC50 in assay [1] stood at 0.27 µM; against Human thrombin [3], 13 µM; at Human factor Xa it was 35 µM.
With `COCCNC(=N)c1ccc(CNC(=O)Cn2c(-c3cccc(N)c3)c(Cl)nc(NC3CCC3)c2=O)cc1` [Example 163], the IC50 in assay [1] was determined as 40 µM. Further, on Human thrombin [2], the “% Inhibition Thrombin II (30 µM)” value came to 4%.
With `CSc1ccc(N)cc1-c1c(Cl)nc(NC(C)C)c(=O)n1CC(=O)NCc1ccc(C(=N)N)cc1` [Example 111], the IC50 was 0.12 µM in assay [1], > 30 µM on Human thrombin [3] and > 30 µM on Human factor Xa.
As to `Nc1ccc(CNC(=O)Cn2c(-c3cccc(N)c3)c(Cl)nc(NC3CCC3)c2=O)cc1` [Example 158], the inhibition at 30 µM in assay [1] stood at 10%. The IC50 at Human factor Xa was > 30 µM. The “% Inhibition Thrombin II (30 µM)” value at Human thrombin [2] was found to be 6%.
For the compound `COC(=O)c1cc(N)cc(-c2c(Cl)nc(NC3CCC3)c(=O)n2CC(=O)NCc2ccc(C(=N)N)cc2)c1` [Example 127], the IC50 in assay [1] was 0.031 µM. Besides, the “% Inhibition Factor Xa (30 µM)” value on Human factor Xa amounted to 27%. In addition, at Human thrombin [2], the “% Inhibition Thrombin II (30 µM)” value is 23%.
As to `Nc1cccc(-c2c(Cl)nc(NC3CCC3)c(=O)n2CC(=O)NCc2ccc3ccnc(N)c3c2)c1` [Example 147], in assay [1], the inhibition at 30 µM is 5%. In addition, the concentration for half-maximal inhibition (IC50) against Human thrombin [3] and on Human factor Xa was > 30 µM in each case.
Consider `COC(=O)c1cc(N)cc(-c2cnc(NC3CCC3)c(=O)n2CC(=O)NCc2ccc(C(=N)N)cc2)c1` [Example 117], for which the IC50 in assay [1] was determined as 0.033 µM. Moreover, the “% Inhibition Factor Xa (30 µM)” value at Human factor Xa amounted to 18%. Besides, on Human thrombin [2], the “% Inhibition Thrombin II (30 µM)” value stood at 21%.
In the case of `N=C(N)c1ccc(Cc2cccc(-n3c(-c4cccc(N)c4)c(Cl)nc(NC4CCC4)c3=O)c2)cc1` [Example 138], the inhibition at 30 µM in assay [1] amounted to 8%. Moreover, the inhibition at 100 µM at Human thrombin [3] was determined as 39%; at Human factor Xa, 28%.
Regarding `CC(C)Nc1nc(Cl)c(-c2cc(N)cc(C(=O)NC3CCCC3)c2)n(CC(=O)NCc2ccc(C(=N)N)cc2)c1=O` [Example 128-16], the IC50 in assay [1] worked out at 0.007 µM; at Human thrombin [3], 10.2 µM. The inhibition at 100 µM at Human factor Xa amounted to 36%.
`N=C(N)c1ccc(CNC(=O)Cn2c(-c3cc(N)cc(C(=O)O)c3)cnc(NC3CCC3)c2=O)cc1` [Example 118]: the figures for the IC50 (in assay [1]; against Human factor Xa) were 0.052 µM and 52.3 µM, respectively. In addition, the “% Inhibition Thrombin II (30 µM)” value at Human thrombin [2] is recorded as 3%.
In the case of `COCC/N=C(\NCCOC)c1ccc(CNC(=O)Cn2c(-c3cccc(N)c3)c(Cl)nc(NC3CCC3)c2=O)cc1` [Example 164], in assay [1], the inhibition at 30 µM amounted to 24%. Besides, the “% Inhibition Factor Xa (30 µM)” value on Human factor Xa is reported as 2%. On Human thrombin [2], the “% Inhibition Thrombin II (30 µM)” value is 5%.
`Nc1cccc(-c2c(Cl)nc(NC3CCC3)c(=O)n2CC(=O)NCc2ccc3c(N)nsc3c2)c1` [Example 145]: the IC50 in assay [1] is 26.8 µM; against Human thrombin [3], > 30 µM. For the same compound, the “% Inhibition Factor Xa (30 µM)” value on Human factor Xa is listed as 3%.
As to `Nc1cccc(-c2c(Cl)nc(NC3CCC3)c(=O)n2CC(=O)NCc2ccc(-c3noc(=O)[nH]3)cc2)c1` [Example 152], the inhibition at 30 µM in assay [1] was 28%. Besides, the IC50 against Human thrombin [3] and against Human factor Xa was > 30 µM in each case.
Take `CC(C)Nc1nc(Cl)c(-c2cc(N)cc(C(=O)NCc3cccc(C(F)(F)F)c3)c2)n(CC(=O)NCc2ccc(C(=N)N)cc2)c1=O` [Example 128-13]: the IC50 in assay [1] is 0.0491 µM. The inhibition at 100 µM at Human thrombin [3] came to 36%; at Human factor Xa, 26%.
For `N=C(N)c1ccc(CNC(=O)Cn2c(-c3cc(N)nc(C(=O)O)c3)cnc(NC3CCC3)c2=O)cc1` [Example 120] the same measures were 0.1 µM, 47% and 43%.
For `CC(C)Nc1nc(Cl)c(-c2cc(N)cc(C(=O)NCc3ccccc3C(F)(F)F)c2)n(CC(=O)NCc2ccc(C(=N)N)cc2)c1=O` [Example 128-11], in that order: 0.0114 µM, 46% and 35%.
Regarding `N=C(N)c1ccc(COCCn2c(-c3cccc(N)c3)c(Cl)nc(NC3CCC3)c2=O)cc1` [Example 140], the values for the IC50 (in assay [1]; against Human thrombin [3]) were 13.3 µM and 47.4 µM, respectively. Besides, at Human factor Xa, the inhibition at 100 µM was 24%.
For `CC(C)Nc1nc(Cl)c(-c2cc(N)cc(C(=O)NC(C)(C)c3ccccc3)c2)n(CC(=O)NCc2ccc(C(=N)N)cc2)c1=O` [Example 128-4] the same measures were 0.0107 µM, 24 µM and 42%.
For the compound `CC(C)Nc1nc(Cl)c(-c2cccc(N)c2)n(CC(=O)NNc2ccc(C(=N)N)cc2)c1=O` [Example 157], the IC50 in assay [1] amounted to 0.7 µM; on Human thrombin [3], 35 µM; against Human factor Xa it was 64 µM.
With `CC(C)Nc1nc(Cl)c(-c2cccc(N)c2)n(CC(=O)NCC2CCC(C(=N)N)C=N2)c1=O` (stereo not drawn) [Example 150], the IC50 in assay [1] amounted to 0.36 µM; against Human thrombin [3] it was 25 µM. Moreover, the “% Inhibition Factor Xa (30 µM)” value at Human factor Xa is recorded as 4%.
For the compound `CC(C)Nc1nc(Cl)c(-c2cc(N)cc(C(=O)NCc3cc(C(F)(F)F)cc(C(F)(F)F)c3)c2)n(CC(=O)NCc2ccc(C(=N)N)cc2)c1=O` [Example 128-6], the IC50 in assay [1] was 0.332 µM. Moreover, the inhibition at 100 µM at Human thrombin [3] worked out at 40%; at Human factor Xa, 29%.
As to `Nc1cccc(-c2c(Cl)nc(NC3CCC3)c(=O)n2CC(=O)NCc2ccc(-c3n[nH]c(=O)[nH]3)cc2)c1` [Example 153], the inhibition at 30 µM in assay [1] stood at 12%. Further, the IC50 against Human thrombin [3] is > 30 µM. Besides, the “% Inhibition Factor Xa (30 µM)” value at Human factor Xa is listed as 8%.
As for `N=C(N)c1ccc(CNCCn2c(-c3cccc(N)c3)c(Cl)nc(NC3CCC3)c2=O)cc1` [Example 139], the IC50 in assay [1] was found to be 4.71 µM; on Human thrombin [3], 35.8 µM. This compound also returned an inhibition at 100 µM on Human factor Xa of 41%.
Turning to `CC(C)Nc1nc(Cl)c(-c2cc(N)cc(C(=O)NCc3ccccn3)c2)n(CC(=O)NCc2ccc(C(=N)N)cc2)c1=O` [Example 128-19], the IC50 in assay [1] amounted to 0.0261 µM. The inhibition at 100 µM on Human thrombin [3] is 37%; at Human factor Xa, 18%.
On to `CC(C)Nc1nc(Cl)c(-c2cc(N)cc(C(=O)NC3CCCCCC3)c2)n(CC(=O)NCc2ccc(C(=N)N)cc2)c1=O` [Example 128-17], for which the IC50 came out at 0.0109 µM in assay [1] and 20.2 µM at Human thrombin [3]. In addition, the inhibition at 100 µM at Human factor Xa stood at 41%.
`C/N=C(/NC)c1ccc(CNC(=O)Cn2c(-c3cccc(N)c3)c(Cl)nc(NC3CCC3)c2=O)cc1` [Example 162]: the inhibition at 30 µM in assay [1] is 35%. In addition, the “% Inhibition Thrombin II (30 µM)” value at Human thrombin [2] was determined as 2%.
With `CC(C)Nc1nc(Br)c(-c2cccc(N)c2)n(CC(=O)NCc2ccc(C(=N)N)cc2)c1=O` [Example 124], the values for the IC50 (in assay [1]; against Human thrombin [3]) were 0.016 µM and 4.68 µM, respectively. Besides, the “% Inhibition Factor Xa (30 µM)” value at Human factor Xa turned out to be 17%.
Turning to `CC(C)Nc1nc(Cl)c(-c2cc(N)cc(C(=O)NC3CCC3)c2)n(CC(=O)NCc2ccc(C(=N)N)cc2)c1=O` [Example 128-15], the values for the IC50 (in assay [1]; against Human thrombin [3]) were 0.0066 µM and 13.3 µM, respectively. The inhibition at 100 µM on Human factor Xa is 32%.
In the case of `CC(C)Nc1nc(Cl)c(-c2cc(N)cc(C(=O)NCc3cccc(F)c3)c2)n(CC(=O)NCc2ccc(C(=N)N)cc2)c1=O` [Example 128-12], the IC50 in assay [1] worked out at 0.011 µM. In addition, the values for the inhibition at 100 µM at Human thrombin [3] and against Human factor Xa were 47% and 33%, respectively.
